Measured values: BigSolDB 2.1

c1nc[nH]n1
Details | solubility (mole fraction)
in ethanol, 283.18 K | 0.131
in ethanol, 288.25 K | 0.147
in ethanol, 293.21 K | 0.164
in ethanol, 298.18 K | 0.184
in ethanol, 303.15 K | 0.205
in ethanol, 308.14 K | 0.228
in ethanol, 313.21 K | 0.253
in ethanol, 318.23 K | 0.28
in ethanol, 323.22 K | 0.308
in ethanol, 328.27 K | 0.339
in ethanol, 333.28 K | 0.371
in ethyl acetate, 283.21 K | 0.0268
in ethyl acetate, 288.29 K | 0.032
in ethyl acetate, 293.21 K | 0.0365
in ethyl acetate, 298.19 K | 0.041
in ethyl acetate, 303.18 K | 0.0457
in ethyl acetate, 308.27 K | 0.0513
in ethyl acetate, 313.2 K | 0.0578
in ethyl acetate, 318.21 K | 0.066
in ethyl acetate, 323.16 K | 0.0759
in ethyl acetate, 328.17 K | 0.0884
in ethyl acetate, 333.27 K | 0.104
in ethyl formate, 283.21 K | 0.0208
in ethyl formate, 288.23 K | 0.0246
in ethyl formate, 293.29 K | 0.0286
in ethyl formate, 298.24 K | 0.0331
in ethyl formate, 303.26 K | 0.0384
in ethyl formate, 308.17 K | 0.0446
in ethyl formate, 313.24 K | 0.0524
in ethyl formate, 318.27 K | 0.0617
in ethyl formate, 323.31 K | 0.073
in isopropanol, 283.17 K | 0.129
in isopropanol, 288.21 K | 0.144
in isopropanol, 293.16 K | 0.159
in isopropanol, 298.23 K | 0.176
in isopropanol, 303.27 K | 0.193
in isopropanol, 308.19 K | 0.211
in isopropanol, 313.24 K | 0.232
in isopropanol, 318.22 K | 0.254
in isopropanol, 323.27 K | 0.278
in isopropanol, 328.2 K | 0.304
in isopropanol, 333.19 K | 0.332
in isopropanol, 338.18 K | 0.363
in isopropanol, 343.26 K | 0.397
in methyl acetate, 283.27 K | 0.0968
in methyl acetate, 288.21 K | 0.106
in methyl acetate, 293.19 K | 0.117
in methyl acetate, 298.21 K | 0.128
in methyl acetate, 303.2 K | 0.141
in methyl acetate, 308.29 K | 0.155
in methyl acetate, 313.18 K | 0.171
in methyl acetate, 318.16 K | 0.189
in methyl acetate, 323.24 K | 0.21
in n-butyl acetate, 283.2 K | 0.0141
in n-butyl acetate, 288.23 K | 0.0166
in n-butyl acetate, 293.26 K | 0.0202
in n-butyl acetate, 298.22 K | 0.024
in n-butyl acetate, 303.24 K | 0.0279
in n-butyl acetate, 308.17 K | 0.032
in n-butyl acetate, 313.28 K | 0.037
in n-butyl acetate, 318.21 K | 0.0428
in n-butyl acetate, 323.16 K | 0.0498
in n-butyl acetate, 328.24 K | 0.0586
in n-butyl acetate, 333.19 K | 0.0688
in n-butyl acetate, 338.18 K | 0.0809
in n-butyl acetate, 343.23 K | 0.0955
in n-butyl acetate, 348.18 K | 0.113
in n-butyl acetate, 353.19 K | 0.136
in n-butyl acetate, 358.18 K | 0.167
in n-butyl acetate, 363.26 K | 0.211
in n-propanol, 283.17 K | 0.12
in n-propanol, 288.18 K | 0.135
in n-propanol, 293.27 K | 0.15
in n-propanol, 298.19 K | 0.168
in n-propanol, 303.21 K | 0.187
in n-propanol, 308.23 K | 0.208
in n-propanol, 313.27 K | 0.231
in n-propanol, 318.2 K | 0.256
in n-propanol, 323.22 K | 0.283
in n-propanol, 328.28 K | 0.313
in n-propanol, 333.18 K | 0.344
in n-propanol, 338.23 K | 0.378
in n-propanol, 343.29 K | 0.415
in propylene glycol, 283.16 K | 0.174
in propylene glycol, 288.27 K | 0.212
in propylene glycol, 293.26 K | 0.249
in propylene glycol, 298.16 K | 0.284
in propylene glycol, 303.19 K | 0.319
in propylene glycol, 308.18 K | 0.353
in propylene glycol, 313.2 K | 0.386
in propylene glycol, 318.28 K | 0.419
in propylene glycol, 323.21 K | 0.451
in propylene glycol, 328.22 K | 0.483
in propylene glycol, 333.23 K | 0.514
in propylene glycol, 338.29 K | 0.545
in propylene glycol, 343.21 K | 0.574
in propylene glycol, 348.23 K | 0.604
in propylene glycol, 353.24 K | 0.633
